Data set [1] concerns PG binding sites on human hypernephroma cells. The data set is described as follows: Time course of specific 3H-PG binding (association, dissociation). The note with it: 3H-iloprost, 3H-PGE1 each 84 nM, 3H-PGE2 45 nM; stable for at least 80 min.
Data set [2] addresses T1, PGI2-binding sites (3H-iloprost receptors) on human hypernephroma cells (Homo sapiens, UniProt P43119).
T1 construct: endogenous in cells; host or cells: primary cultures of human renal cell carcinoma (hypernephroma) cells, one line per patient
The experiment in a line: Saturation binding of 3H-iloprost to cultured hypernephroma cells (Scatchard analysis). The note with it: for Bmax, 3H-iloprost binding, Table I: individual cell lines; for Bmax (binding capacity), 3H-iloprost binding: mean of cell lines.

For data set [3], the system named is PGE2-binding sites (3H-PGE2-receptors) on human hypernephroma cells. The experiment in a line: Saturation binding of 3H-PGE2 to cultured hypernephroma cells (Scatchard analysis). To be noted: for Bmax, 3H-PGE2 binding, Table III: individual cell lines; for Bmax (binding capacity), 3H-PGE2 binding / Kd: mean of cell lines; for Kd: read-out: Kd (dissociation constant), 3H-PGE2 binding.

For data set [4], the system named is human hypernephroma cells. The data set is described as follows: Cellular viability (phase-contrast microscopy and Trypan Blue exclusion). It counts as cell-based. The note with it: ASA incubation for 24 h.
Data set [5] concerns PG biosynthesis of human hypernephroma cells. The data set is described as follows: Conversion of exogenously added 14C-AA to its metabolites (radiothinlayer chromatography). It counts as cell-based. The note with it: for 14C-AA conversion to 12-HETE, Table IV / 14C-AA conversion to PGD2, Table IV / 14C-AA conversion to PGE2, Table IV / 14C-AA conversion to PGF2alpha, Table IV / 14C-AA conversion to TXB2, Table IV / AA (%) remaining, Table IV: individual cell lines.

Where [6] appears, read: ASA-treated group (group 2), ASA 0.5 mg 10-6 cells for 24 h.
The mark [7] stands for this setting: ASA-treated group irradiated (group 4).
The mark [8] stands for this setting: control group (group 1), no ASA, no irradiation.
[9] abbreviates: control group irradiated (group 3), 60Co 1.0 Gy min-1 over 10 min, assay about 2 h after.
[10] abbreviates: ASA-treated group (group 2), patients 1,3,4,6,8,9,11 in order.
Setting [11] is: ASA-treated group irradiated (group 4), patients 3,4,6,9,11 in order.

“And” between values parts separate entries of the source, which are not always exact repeats. Identical values can stand only once. Like-named read-outs stand apart in the source and are kept apart here.

T1 sequence (P43119 whole entry): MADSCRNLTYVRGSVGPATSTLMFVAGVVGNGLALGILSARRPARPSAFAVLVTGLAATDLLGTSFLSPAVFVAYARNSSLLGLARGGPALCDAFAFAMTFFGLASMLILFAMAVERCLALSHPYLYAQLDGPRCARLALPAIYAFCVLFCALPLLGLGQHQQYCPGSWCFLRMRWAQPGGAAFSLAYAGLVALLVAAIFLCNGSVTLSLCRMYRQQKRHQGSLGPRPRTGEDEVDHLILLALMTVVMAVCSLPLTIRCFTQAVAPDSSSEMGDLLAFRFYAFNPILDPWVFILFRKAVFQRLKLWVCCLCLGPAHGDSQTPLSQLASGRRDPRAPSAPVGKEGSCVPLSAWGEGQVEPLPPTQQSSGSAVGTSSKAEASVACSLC

With `CC#CCC(C)[C@H](O)/C=C/[C@@H]1[C@H]2C/C(=C/CCCC(=O)O)C[C@H]2C[C@H]1O` (some centres unmarked) [iloprost], the “time to reach binding equilibrium” value in data set [1] was no more than 20 min. Besides, the “Bmax, 3H-iloprost binding, Table I” value in data set [2] (ASA (group 2), patients 1,2,3,4,5,6,7,8,9,10,11 in order, listed as 3H-iloprost) is 813 fmol mg-1 protein and 855 fmol mg-1 protein and 987 fmol mg-1 protein and 960 fmol mg-1 protein and 916 fmol mg-1 protein and 1047 fmol mg-1 protein and 2024 fmol mg-1 protein and 1301 fmol mg-1 protein and 442 fmol mg-1 protein and 1023 fmol mg-1 protein and 861 fmol mg-1 protein; in data set [2] (control (group 1), patients 1,2,3,4,5,6,7,8,9,10,11 in order, listed as 3H-iloprost), 741 fmol mg-1 protein and 635 fmol mg-1 protein and 876 fmol mg-1 protein and 732 fmol mg-1 protein and 808 fmol mg-1 protein and 806 fmol mg-1 protein and 649 fmol mg-1 protein and 407 fmol mg-1 protein and 382 fmol mg-1 protein and 829 fmol mg-1 protein and 756 fmol mg-1 protein; in data set [2] (irradiation, ASA (group 4), patients 3,4,6,7,9,10,11 in order, listed as 3H-iloprost), 489 fmol mg-1 protein and 354 fmol mg-1 protein and 867 fmol mg-1 protein and 1551 fmol mg-1 protein and 364 fmol mg-1 protein and 1162 fmol mg-1 protein and 576 fmol mg-1 protein; in data set [2] (irradiation, control (group 3), patients 3,4,6,7,9,10,11 in order, listed as 3H-iloprost), 332 fmol mg-1 protein and 287 fmol mg-1 protein and 432 fmol mg-1 protein and 699 fmol mg-1 protein and 204 fmol mg-1 protein and 203 fmol mg-1 protein and 118 fmol mg-1 protein. The “Bmax (binding capacity), 3H-iloprost binding” value in data set [2] (setting [6]) was 1021 fmol mg-1 protein; in data set [2] (setting [7]) it was 766 +/- 452 fmol mg-1 protein; in data set [2] (ASA-treated group irradiated (group 4), listed as 3H-iloprost) it was 766 fmol mg-1 protein; in data set [2] (setting [8]), 693 fmol mg-1 protein; in data set [2] (setting [9]), 325 fmol mg-1 protein.

In general, Kd refers to a measure of binding affinity in units of concentration. With `CCCCC[C@H](O)/C=C/[C@H]1[C@H](O)CC(=O)[C@@H]1C/C=C\CCCC(=O)O` [PGE2], the “time to reach binding equilibrium” value in data set [1] is no more than 30 min. In addition, the “Bmax, 3H-PGE2 binding, Table III” value in data set [3] (ASA (group 2), patients 1,3,4,5,6,8,9,10,11 in order, listed as 3H-PGE2) is 650 fmol mg-1 protein and 162 fmol mg-1 protein and 858 fmol mg-1 protein and 780 fmol mg-1 protein and 1104 fmol mg-1 protein and 986 fmol mg-1 protein and 666 fmol mg-1 protein and 324 fmol mg-1 protein and 441 fmol mg-1 protein; in data set [3] (control (group 1), patients 1,3,4,5,6,8,9,10,11 in order, listed as 3H-PGE2), 563 fmol mg-1 protein and 143 fmol mg-1 protein and 478 fmol mg-1 protein and 650 fmol mg-1 protein and 930 fmol mg-1 protein and 438 fmol mg-1 protein and 534 fmol mg-1 protein and 313 fmol mg-1 protein and 398 fmol mg-1 protein; in data set [3] (irradiation, ASA (group 4), patients 3,6,8,9,10,11 in order, listed as 3H-PGE2) it was 181 fmol mg-1 protein and 336 fmol mg-1 protein and 338 fmol mg-1 protein and 466 fmol mg-1 protein and 232 fmol mg-1 protein and 170 fmol mg-1 protein; in data set [3] (irradiation, control (group 3), patients 3,6,8,9,10,11 in order, listed as 3H-PGE2) it was 63 fmol mg-1 protein and 209 fmol mg-1 protein and 218 fmol mg-1 protein and 112 fmol mg-1 protein and 96 fmol mg-1 protein and 189 fmol mg-1 protein. The “Bmax (binding capacity), 3H-PGE2 binding” value was 663 +/- 309 fmol mg-1 protein in data set [3] (setting [6]); 663 fmol mg-1 protein in data set [3] (ASA-treated group (group 2), ASA 0.5 mg 10-6 cells for 24 h, listed as 3H-PGE2); 287 fmol mg-1 protein in data set [3] (setting [7]); 494 +/- 221 fmol mg-1 protein in data set [3] (setting [8]); 494 fmol mg-1 protein in data set [3] (control group (group 1), no ASA, no irradiation, listed as 3H-PGE2); 148 +/- 66 fmol mg-1 protein in data set [3] (setting [9]). Moreover, the “Bmax (binding capacity), 3H-PGE2 binding” value in data set [3] (control group irradiated (group 3), 60Co 1.0 Gy min-1 over 10 min, assay about 2 h after, listed as 3H-PGE2) was 148 fmol mg-1 protein. Also, the Kd in data set [3] (setting [6]) was found to be 2.2 ± 1.5 nM; in data set [3] (setting [7]), 3.5 nM; in data set [3] (setting [8]) it was 4.2 ± 2.5 nM; in data set [3] (setting [9]), 4.7 ± 3.6 nM.

Consider `CC(=O)Oc1ccccc1C(=O)O` [ASA, acetylsalicylic acid], for which, in data set [4], the cellular viability result was “unchanged”. Besides, in data set [5] (setting [10]), the “14C-AA conversion to 12-HETE, Table IV” value was 6.9% and 4.2% and 7.3% and 5.5% and 5.3% and 4.9% and 8.8%; the “14C-AA conversion to PGD2, Table IV” value is 1.3% and 0.9% and 0.2% and 0.5% and 0.4% and 0.6% and 0.8%; the “14C-AA conversion to PGE2, Table IV” value is 1.8% (2×) and 1.1% and 2.2% and 0.7% and 1.5% and 1.3%; the “14C-AA conversion to PGF2alpha, Table IV” value was 1.7% and 0.7% and 0.8% and 0.2% and 0.3% (2×) and 0.5%. Also, in data set [5] (setting [10]), the “14C-AA conversion to TXB2, Table IV” value is 1.2% and 0.8% and 1.7% and 1.3% (2×) and 2.3% and 1.5%; the “AA (%) remaining, Table IV” value was 66.5% and 78.2% and 72.9% and 78.5% (2×) and 82.8% and 81.0%. The “14C-AA conversion to PGF2alpha” value in data set [5] (ASA-treated group (group 2), mean (control group […])) is 0.6%. Moreover, the “14C-AA conversion to 12-HETE” value in data set [5] (ASA-treated group (group 2), mean (control group 3.7)) turned out to be 6.1%. In addition, in data set [5] (ASA-treated group (group 2), mean (control group 8.0)), the “14C-AA conversion to TXB2” value is 1.4%. Besides, in data set [5] (setting [11]), the “14C-AA conversion to 12-HETE, Table IV” value is 4.9% and 5.1% (2×) and 4.8% (2×); the “14C-AA conversion to PGD2, Table IV” value was 0.3% and 0.9% and 0.8% and 0.5% and 0.4%; the “14C-AA conversion to PGE2, Table IV” value is 0.8% and 1.6% and 1.9% and 1.1% and 1.8%; the “14C-AA conversion to PGF2alpha, Table IV” value was 0.5% and 0.9% and 0.2% and 0.8% and 0.4%. For the same molecule, in data set [5] (setting [11]), the “14C-AA conversion to TXB2, Table IV” value was 1.3% and 1.2% and 1.1% and 1.5% and 0.6%; the “AA (%) remaining, Table IV” value was 82.9% and 74.3% and 81.2% and 73.7% and 79.4%. The “14C-AA conversion to PGF2alpha” value in data set [5] (ASA-treated group irradiated (group 4), mean (control irradiated 2.7)) is 0.6%. In addition, the “14C-AA conversion to PGD2” value in data set [5] (ASA-treated group irradiated (group 4), mean (control irradiated 3.0)) is given as 0.6%. Also, the “14C-AA conversion to 12-HETE” value in data set [5] (ASA-treated group irradiated (group 4), mean (control irradiated 4.1)) worked out at 4.9%. Moreover, the “14C-AA conversion to TXB2” value in data set [5] (ASA-treated group irradiated (group 4), mean (control irradiated 7.4)) came out at 1.1%. Moreover, the “14C-AA conversion to PGE2” value in data set [5] (ASA-treated group irradiated (group 4), mean (control irradiated 9.0)) is given as 1.4%.

Values taken from article PMC1968618, “Acetylsalicylic acid (ASA) protects the prostaglandin-cAMP-system of human hypernephroma cells against irradiation-induced alterations” (British Journal of Cancer, 1993).
